Data on nine compounds can be found in US4504492A, “Pharmaceutical amides, and preparation, formulations and use thereof” (Burroughs Wellcome Co., priority 1981, dated 1985).

One assay has as its target T1, `Enkephalinase` (Mus musculus, UniProt Q61391).
T1 construct: The lung and brain (less cerebellum) were rapidly dissected, weighed and homogenised; from tissue; host or cells: mouse lung and brain (less cerebellum) homogenate
T1 sequence (Q61391 1-750): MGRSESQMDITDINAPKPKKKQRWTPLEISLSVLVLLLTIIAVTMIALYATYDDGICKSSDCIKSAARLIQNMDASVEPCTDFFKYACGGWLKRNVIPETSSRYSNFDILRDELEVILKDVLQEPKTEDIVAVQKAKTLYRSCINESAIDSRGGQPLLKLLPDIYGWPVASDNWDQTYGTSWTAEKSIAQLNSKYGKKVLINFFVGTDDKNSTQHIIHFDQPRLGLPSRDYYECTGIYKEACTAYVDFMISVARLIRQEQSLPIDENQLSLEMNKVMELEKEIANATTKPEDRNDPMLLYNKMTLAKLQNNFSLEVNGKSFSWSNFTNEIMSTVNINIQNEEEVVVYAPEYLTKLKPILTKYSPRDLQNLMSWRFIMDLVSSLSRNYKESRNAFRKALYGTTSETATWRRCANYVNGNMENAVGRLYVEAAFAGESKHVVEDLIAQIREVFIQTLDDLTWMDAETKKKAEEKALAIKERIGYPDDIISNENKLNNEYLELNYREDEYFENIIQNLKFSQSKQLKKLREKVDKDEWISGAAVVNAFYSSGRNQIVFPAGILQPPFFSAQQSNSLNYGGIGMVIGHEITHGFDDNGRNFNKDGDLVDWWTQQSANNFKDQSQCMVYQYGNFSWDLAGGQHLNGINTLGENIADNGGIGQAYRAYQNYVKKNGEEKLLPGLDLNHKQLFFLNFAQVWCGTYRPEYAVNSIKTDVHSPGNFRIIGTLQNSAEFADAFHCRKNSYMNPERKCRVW
The assay is described as follows: Activity ex vivo: `enkephalinase` activity in lung and brain homogenates of mice dosed i.p. with test compound. The following applies: for ED50: mouse, ip, 0.25 h; for Lung/Brain (ED50 ratio): ratio of apparent ED50 values for lung and brain, 15 min. The procedure:
Mice were dosed i.p. with 0-30 mg/Kg of test compound suspended in 0.25% w/v celacol/0.85% w/v saline. The mice were killed 15 minutes after administration of the doses. The lung and brain (less cerebellum) were rapidly dissected, weighed and homogenised in 100 mM tris-HCl pH 7.4 buffer containing 1 uM Captopril to give a 9.1% W/V homogenate. `Enkephalinase` activity in the homogenate was measured by incubation at 37° C. with 100 μM [^3 H]-D-Tyr-D-Ala-L-Gly-L-Gly-L-Phe-L-leu for 10 minutes (lung) or 30 minutes (brain).

The subject of a further assay is ACE and enkephalinase. The following applies: specificity for ACE over enkephalinase; Swerts et al; cited from earlier work.
In the next assay the target is T2, enkephalinase Al (Rattus norvegicus, UniProt P07861).
T2 construct: from tissue; host or cells: rat striatum (membrane pellet, Triton X-100 solubilised, DEAE-cellulose and Sephacryl S-300)
T2 sequence (P07861 1-750): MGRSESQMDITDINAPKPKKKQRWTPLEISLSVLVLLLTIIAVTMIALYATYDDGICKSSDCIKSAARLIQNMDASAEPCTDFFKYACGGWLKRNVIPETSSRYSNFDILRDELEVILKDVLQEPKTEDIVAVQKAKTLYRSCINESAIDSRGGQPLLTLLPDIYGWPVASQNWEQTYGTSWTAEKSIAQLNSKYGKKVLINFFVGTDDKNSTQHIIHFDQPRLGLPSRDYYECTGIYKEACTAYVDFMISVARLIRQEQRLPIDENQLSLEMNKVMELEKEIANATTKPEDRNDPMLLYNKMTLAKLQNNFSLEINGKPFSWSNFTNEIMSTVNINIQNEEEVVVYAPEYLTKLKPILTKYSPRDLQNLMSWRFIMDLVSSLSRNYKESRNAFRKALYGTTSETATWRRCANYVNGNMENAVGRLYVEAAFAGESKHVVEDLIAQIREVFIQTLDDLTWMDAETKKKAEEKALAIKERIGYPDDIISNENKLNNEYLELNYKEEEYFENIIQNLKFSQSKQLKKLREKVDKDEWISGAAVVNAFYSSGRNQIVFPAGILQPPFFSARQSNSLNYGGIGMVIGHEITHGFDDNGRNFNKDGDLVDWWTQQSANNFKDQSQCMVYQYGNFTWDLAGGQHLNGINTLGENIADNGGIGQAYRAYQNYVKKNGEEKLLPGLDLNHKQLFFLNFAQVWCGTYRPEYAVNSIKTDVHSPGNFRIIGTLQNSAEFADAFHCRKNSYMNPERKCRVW
Briefly: Enkephalinase-inhibiting activity in vitro (3H-TGG generation from 3H-leucine enkephalin by purified enkephalinase Al). In kind it is biochemical. Particulars: approximate, determined graphically; leucine enkephalin 5×10^-5 M, 30° C., 30 mins with enzyme; read-out: IC50 (concentration of test compound required for 50% inhibition of 3H-TGG generation). The procedure: The compounds were investigated for enkephalinase inhibiting activity using the following method.
Rats were killed by decapitation and the striata dissected out on ice. The pooled tissues were homogenised on ice-cold Tris/hydrochloric acid buffer (50 mM, pH 7.70, 30 ml per gram of tissue) and centrifuged (50,000 g, 15 mins). The resulting supernatent was discarded and the remaining pellet washed three times. The washed pellet was solubilised by resuspension in half the volume of buffer as before containing 1.0% (v/v) Triton X-100 and incubated at 37° C. for 45 mins. The suspension was then centrifuged at 100,000 g for 60 mins and the solubilised enzymes contained in the supernatant separated by DEAE-cellulose column chromatography. Enkephalinase Al was further purified by Sephacryl S.300 chromatograph.
Enkephalinase-inhibiting activity was estimated by the following procedure.
Separation of (a) unchanged ^3 H-leucine enkephalin and (b) ^3 H-Tyr-Gly-OH(^3 H-TGG), generated from (a) by enkephalinase Al in the incubation mixture was effected by thin layer chromatography (plastic silica gel plates of 0.1 mm layer thickness, solvent system ethyl acetate:propan-2-ol:5% (v/v) acetic acid, 2:2:1) using solutions of the cold compounds as carriers. After drying the materials were visualized with ninhydrin and appropriate areas of the plates cut out and placed in scintillation vials containing 50% methanol/0.1M hydrochloric acid to elute the ^3 H label. Bioflor reagent (10 ml) was then added and the radioactivity determined by liquid scintillation counting.

Setting [1] is: brain (less cerebellum) homogenate, 15 minutes after administration, read-out: Apparent ED50 Brain.
Where [2] appears, read: lung homogenate, 15 minutes after administration, read-out: Apparent ED50 Lung.

SMILES strings stand for the structures. Where two headings read alike, the source gives them in different places. Where only a bound is given, the exact number is not on record here.

Broadly, the ED50 is the dose that gives a 50% effect, or the effect in half of the subjects. For `O=C(O)CNC(=O)C(CS)Cc1ccccc1` (racemic) [Thiorphan, (DL-3-mercapto-2-benzylpropanoyl)-glycine, reference compound], the results for the ED50 on `Enkephalinase` (setting [1]) and at `Enkephalinase` (setting [2]) were 3.92 µmol/kg and 0.69 µmol/kg, respectively.

Regarding `C[C@H](CS)C(=O)N1CCC[C@H]1C(=O)O` [Captopril, 1-(D-3-mercapto-2-methylpropanoyl)-L-proline (S,S)], in the assay on ACE and enkephalinase, the “concentration required to inhibit ACE by 50% lower than that required for the same inhibition of enkephalinase” value is on record as “approximately 1000 fold”.

For the compound `CC(C)C[C@H](NC(=O)C(Cc1ccccc1)C(=O)NO)C(=O)O` (stereo partly drawn) [Compound 1, N-[2-(N-Hydroxycarbamoyl)-3-phenylpropanoyl]-L-leucine], the 50% effective dose (ED50) on `Enkephalinase` (setting [1]) amounted to 14.6 µmol/kg; on `Enkephalinase` (setting [2]), 6.1 µmol/kg. The “Lung/Brain (ED50 ratio)” value at `Enkephalinase` was 2.4. Also, the IC50 at enkephalinase Al is 19 nM.

On to `CC(C)C[C@H](NC(=O)C(Cc1ccc(C(C)C)cc1)C(=O)NO)C(=O)O` (stereo partly drawn) [Compound 2, N-[2-(N-Hydroxycarbamoyl)-3-(4-isopropylphenyl)propanoyl]-L-leucine], for which, on enkephalinase Al, the IC50 came out at 120 nM.

For `COc1ccc(CC(C(=O)NO)C(=O)N[C@@H](CC(C)C)C(=O)O)cc1` (stereo partly drawn) [Compound 3, N-[2-(N-Hydroxycarbamoyl)-3-(4-methoxyphenyl)-propanoyl]-L-leucine], the IC50 at enkephalinase Al is 750 nM.

On to `CCOC(=O)[C@H](CC(C)C)NC(=O)C(Cc1ccccc1)C(=O)NO` (stereo partly drawn) [Compound 4, Ethyl N-[(DL)-2-hydroxycarbamoyl)-3-phenylpropanoyl]-L-leucinate], for which the ED50 at `Enkephalinase` (setting [1]) was over 85.7 µmol/kg; at `Enkephalinase` (setting [2]) it was 8.6 µmol/kg. The “Lung/Brain (ED50 ratio)” value at `Enkephalinase` is reported as over 10.

Take `CC(C)C[C@H](NC(=O)C(Cc1ccccc1)C(=O)NO)C(=O)OC(C)(C)C` (stereo partly drawn) [Compound 6, Tert-butyl N-[(DL)-2-hydroxycarbamoyl)-3-phenylpropanoyl]-L-leucinate]: the “Apparent ED50 Brain” value at `Enkephalinase` (brain (less cerebellum) homogenate, 15 minutes after administration) is recorded as “No inhibn. at 26.5”. Moreover, the ED50 at `Enkephalinase` (setting [2]) was over 26.5 µmol/kg.

On to `CC(C)C[C@H](NC(=O)C(Cc1ccc([N+](=O)[O-])cc1)C(=O)NO)C(=O)O` (stereo partly shown) [Compound 9], for which, on enkephalinase Al, the IC50 came out at 520 nM.

As for `CC(C)C[C@H](NC(=O)C(Cc1ccc(Br)cc1)C(=O)NO)C(=O)O` (stereo partly shown) [Compound 10], on enkephalinase Al, the IC50 was 60 nM.
